For one data set, the system named is SARS-CoV-2. The settings on record: positive control used at 5 μM; cited from earlier work.
Data set [1] deals with SARS-CoV-2 strain USA-WA1/2020. The format is cell-based. To be noted: VeroE6 cells, drugs from 8 μM down to 8 nM.
The subject of another data set is Huh7 cells. The settings on record: in high concentration.
The test system of another data set is Caco-2. The settings on record: Caco-2 cells; cited from earlier work.

The source of these data is patent US12670969B2, “Network medicine framework for identifying drug repurposing opportunities” (Northeastern University, priority 2020, dated 2026).

On to `CC(C)C[C@H](NC(=O)[C@H]1O[C@@H]1C(=O)O)C(=O)NCCCCN=C(N)N` [E-64], for which, in the data set on SARS-CoV-2, the “inhibition of SARS-CoV-2 infection, previously reported” value was “inhibit SARS-CoV-2 infection”. In the case of `CC(C)c1nc(CN(C)C(=O)N[C@H](C(=O)N[C@@H](Cc2ccccc2)C[C@H](O)[C@H](Cc2ccccc2)NC(=O)OCc2cncs2)C(C)C)cs1` [Ritonavir], in data set [1], the “outcome in VeroE6 screen, in words” value is given as “no effect”. On the same count and under the same terms, as for `CN(C)CCC=C1c2ccccc2CCc2ccccc21` [amitriptyline], the entry is “S&W”. With `CC(=O)OC[C@H]1O[C@@H]([S-])[C@H](OC(C)=O)[C@@H](OC(C)=O)[C@@H]1OC(C)=O.CCP(CC)CC.[Au+]` [auranofin], the “cytotoxicity in Huh7 cells (reduced nuclei count)” value in the data set with Huh7 cells is reported as “tracing cytotoxicity”. On to `CN1CCCC(n2nc(Cc3ccc(Cl)cc3)c3ccccc3c2=O)CC1` (stereo not drawn) [azelastine], for which, in the data set with Huh7 cells, the “cytotoxicity in Huh7 cells (reduced nuclei count)” value was “tracing cytotoxicity”. For the compound `CCN(CC)CCCC(C)Nc1ccnc2cc(Cl)ccc12` (stereo not drawn) [chloroquine], in data set [1], the “outcome in VeroE6 screen, in words” value is “positive outcomes”. Same read-out and setting: then `CCN(CCO)CCCC(C)Nc1ccnc2cc(Cl)ccc12` (stereo not drawn) [hydroxychloroquine], with “positive outcomes”.

Regarding `CCOC(=O)N1CCC(=C2c3ccc(Cl)cc3CCc3cccnc32)CC1` [loratadine], the “viral activity in human cell line Caco-2” value in the data set on Caco-2 was “inhibited viral activity”. In data set [1] (MOI about 0.2), the “drug-response classification (S, W, C, N) of effect on SARS-CoV-2 infection” value was “N”.
